Results taken from US6566409B1, “Lock and key micelles” (University of South Florida, priority 1994, dated 2003).

Test: Solubility of barbituric acid in CD3CN, free and with bisamidopyridine dendrimers
Assay type: physicochemical
Excerpt: Chemical shift changers for the complexed NH moieties, even in this competing solvent, corresponded to ca. 0.1 ppm for both generation dendrimers.

Compound: O=C1CC(=O)NC(=O)N1 [barbituric acid]
- solubility in CD3CN (free): sparingly soluble
- solubility in CD3CN in the presence of the bisamidopyridine dendrimers (with bisamidopyridine dendrimers): freely soluble to the limit of complementary complexation
